PubChem BioAssay AID1963871 (Molecular Pharmacology Branch, DTP, NCI, 2024)

Test system: KRAS-mutant PDC multicell tumor spheroid viability
Test: Anticancer human tumor 521955-158-R2-J5-PDC patient-derived pancreatic carcinoma cell line growth inhibition [KRAS2]
Settings: for IC50: curve of first compound; for viability, T/C: stronger effect = lower value
Source text: Multicellular complex tumor spheroid response to RAS pathway inhibitors in combination with a targeted agents in patient-derived cell lines with oncogenic KRAS variants from multiple cancer types
A high-throughput screen of multi-cell type tumor spheroids was designed to identify active combinations of targeted small molecules and KRAS pathway inhibitors. Complex spheroids include a stromal component modeled by human endothelial cells (HUVEC) and fibroblasts modeled by human mesenchymal stem cells (MSCs). The concentration ranges selected for each drug and investigational agent were based upon clinically achievable concentrations if the clinical Cmax of the agent was known.
Compounds. The drugs and investigational agents: BI-3406 (NSC825286), BAY-293 (NSC824723), batoprotafib (TNO155; NSC825523), sotorasib (AMG 510; NSC818433), MRTX1257 (NSC819558), elimusertib (BAY 1895344; NSC800525), molibresib (GSK525762; NSC774829), temuterkib (LY3214996; NSC803410), venetoclax (NSC766270), alisertib (NSC759677), olaparib (NSC753686), talazoparib (NSC767125), erdafitinib (NSC781556), ipatasertib (NSC767898), cabozantinib (NSC761068), nintedanib (NSC756659), abemaciclib (NSC768073), docetaxel (NSC628503), trametinib (NSC758246), and sapanisertib (NSC764658) were obtained from the National Cancer Institute (NCI) Developmental Therapeutics Program Chemical Repository. The FDA-approved anticancer drug set is available from the Developmental Therapeutics Program. […] The stock solutions were prepared in dimethyl sulfoxide (DMSO, Sigma-Aldrich, St. Louis, MO, cat. D2650) at 800-fold the tested concentration and stored at -70 degrees C prior to their use. All drugs and investigational agents were tested over a range starting from a high concentration at or near the clinical Cmax and decreasing in half-log increments. If the clinical Cmax for an agent had not been determined, the highest concentration tested was 10 microM.
Cell Culture. All cells were maintained in an incubator at 37 degrees C and 5% CO2 with 95% humidity. The PDC lines were cultured according to standard operating procedures established by the NCI PDMR (https://pdmr.cancer.gov/sops/default.htm). Briefly, all PDCs were thawed and cultured in Matrigel-coated flasks prepared with a working solution of 1X Ham's F-12 nutrient mix, without supplementation (Invitrogen, Waltham, MA, cat. 11765054), 100 U/mL penicillin-streptomycin (Invitrogen, cat. 15140122), and 2.5% Matrigel (Corning Inc., Corning, NY, cat. 354248) for the first three passages. All PDCs were cultured in complete DMEM/F-12 media containing advanced DMEM/F-12 (Invitrogen, cat. 12634028), 4.9% defined fetal bovine serum, heat inactivated (HyClone Laboratories Inc., Logan, UT, cat. SH30070.03HI), 389 ng/mL hydrocortisone (Sigma-Aldrich, cat. H4001), 9.7 ng/mL human EGF recombinant protein (Invitrogen, cat. PHG0313), 23.4 microg/mL adenine (Sigma-Aldrich, cat. A2786), 97.3 U/mL penicillin-streptomycin (Invitrogen, cat. 15140122), 1.9 mM L-glutamine (Invitrogen, cat. 25030081), and 9.7 microM Y-27632 dihydrochloride (Tocris Bioscience, Bristol, United Kingdom, cat. 1254). The PDCs were cultured in complete DMEM/F12 media without 9.7 microM Y-27632 dihydrochloride for at least two passages prior to the screen. The established cell line HOP-62 was cultured in RPMI 1640 medium, HEPES (Invitrogen, cat. 22400105) with 10% defined fetal bovine serum (HyClone Laboratories Inc., cat. SH30070.03) and 2 mM L-glutamine (Invitrogen, cat. 25030081). The pooled donor HUVEC were cultured in endothelial cell growth medium 2 (PromoCell, Heidelberg, Germany, cat. C-22011) and the hMSC were cultured in mesenchymal stem cell growth medium 2 (PromoCell, cat. C-28009). For all experiments, HUVEC and hMSC were used at passages </=5, while the malignant cell lines were used at passages </=15. […]

[1] = second compound 0.1 µM, first compound 0.000316 µM
[2] = second compound 0.1 µM, first compound 0.001 µM
[3] = second compound 0.1 µM, first compound 0.00316 µM
[4] = second compound 0.1 µM, first compound 0.01 µM
[5] = second compound 0.1 µM, first compound 0.0316 µM
[6] = second compound 0.1 µM, first compound 0.1 µM
[7] = second compound 0.316 µM, first compound 0.000316 µM
[8] = second compound 0.316 µM, first compound 0.001 µM
[9] = second compound 0.316 µM, first compound 0.00316 µM
[10] = second compound 0.316 µM, first compound 0.01 µM
[11] = second compound 0.316 µM, first compound 0.0316 µM
[12] = second compound 0.316 µM, first compound 0.1 µM
[13] = second compound 1 µM, first compound 0.000316 µM
[14] = second compound 1 µM, first compound 0.001 µM
[15] = second compound 1 µM, first compound 0.00316 µM
[16] = second compound 1 µM, first compound 0.01 µM
[17] = second compound 1 µM, first compound 0.0316 µM
[18] = second compound 1 µM, first compound 0.1 µM
[19] = second compound 3.16 µM, first compound 0.000316 µM
[20] = second compound 3.16 µM, first compound 0.001 µM
[21] = second compound 3.16 µM, first compound 0.00316 µM
[22] = second compound 3.16 µM, first compound 0.01 µM
[23] = second compound 3.16 µM, first compound 0.0316 µM
[24] = second compound 3.16 µM, first compound 0.1 µM
[25] = second compound 10 µM, first compound 0.000316 µM
[26] = second compound 10 µM, first compound 0.001 µM
[27] = second compound 10 µM, first compound 0.00316 µM
[28] = second compound 10 µM, first compound 0.01 µM
[29] = second compound 10 µM, first compound 0.1 µM
[30] = second compound 0.1 µM, first compound 0.316 µM
[31] = second compound 0.1 µM, first compound 1 µM
[32] = second compound 0.1 µM, first compound 3.16 µM
[33] = second compound 0.1 µM, first compound 10 µM
[34] = second compound 0.316 µM, first compound 0.316 µM
[35] = second compound 0.316 µM, first compound 1 µM
[36] = second compound 0.316 µM, first compound 3.16 µM
[37] = second compound 0.316 µM, first compound 10 µM
[38] = second compound 1 µM, first compound 0.316 µM
[39] = second compound 1 µM, first compound 1 µM
[40] = second compound 1 µM, first compound 3.16 µM
[41] = second compound 1 µM, first compound 10 µM
[42] = second compound 3.16 µM, first compound 0.316 µM
[43] = second compound 3.16 µM, first compound 1 µM
[44] = second compound 3.16 µM, first compound 3.16 µM
[45] = second compound 3.16 µM, first compound 10 µM
[46] = second compound 10 µM, first compound 0.0316 µM
[47] = second compound 10 µM, first compound 0.316 µM
[48] = second compound 10 µM, first compound 1 µM
[49] = second compound 10 µM, first compound 3.16 µM
[50] = second compound 10 µM, first compound 10 µM
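Note: viability read after seven days of drug exposure.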

SMILES: CC(C)n1nc(-c2ccc3oc(N)nc3c2)c2c(N)ncnc21 + C=CC(=O)N1CCN(c2nc(=O)n(-c3c(C)ccnc3C(C)C)c3nc(-c4c(O)cccc4F)c(F)cc23)C(C)C1
- IC50 (second compound 0.1 µM): 9.61 nM
- IC50 (second compound 0.316 µM): 7.5 nM
- IC50 (second compound 1 µM): 7.19 nM
- IC50 (second compound 3.16 µM): 3.43 nM
- IC50 (second compound 10 µM): 0.703 nM
- viability, T/C [1]: 110%
- viability, T/C [2]: 97.8%
- viability, T/C [3]: 63.6%
- viability, T/C [4]: 52.8%
- viability, T/C [5]: 36.7%
- viability, T/C [6]: 27.2%
- viability, T/C [7]: 117%
- viability, T/C [8]: 98.1%
- viability, T/C [9]: 65.5%
- viability, T/C [10]: 44.6%
- viability, T/C [11]: 35.5%
- viability, T/C [12]: 26.9%
- viability, T/C [13]: 117%
- viability, T/C [14]: 102%
- viability, T/C [15]: 64.3%
- viability, T/C [16]: 43.8%
- viability, T/C [17]: 36.6%
- viability, T/C [18]: 24%
- viability, T/C [19]: 91.7%
- viability, T/C [20]: 79.7%
- viability, T/C [21]: 51.9%
- viability, T/C [22]: 29.7%
- viability, T/C [23]: 26.9%
- viability, T/C [24]: 23.1%
- viability, T/C [25]: 58.1%
- viability, T/C [26]: 46.9%
- viability, T/C [27]: 32.5%
- viability, T/C [28]: 25.7%
- viability, T/C [29]: 18.8%

SMILES: CC1(C)CCC(CN2CCN(c3ccc(C(=O)NS(=O)(=O)c4ccc(NCC5CCOCC5)c([N+](=O)[O-])c4)c(Oc4cnc5[nH]ccc5c4)c3)CC2)=C(c2ccc(Cl)cc2)C1 + C=CC(=O)N1CCN(c2nc(=O)n(-c3c(C)ccnc3C(C)C)c3nc(-c4c(O)cccc4F)c(F)cc23)C(C)C1
- IC50 (second compound 0.1 µM): 5910 nM
- IC50 (second compound 0.316 µM): 5020 nM
- IC50 (second compound 1 µM): 3690 nM
- IC50 (second compound 3.16 µM): 3460 nM
- IC50 (second compound 10 µM): 1940 nM
- viability, T/C [5]: 100%
- viability, T/C [6]: 116%
- viability, T/C [30]: 106%
- viability, T/C [31]: 109%
- viability, T/C [32]: 92.3%
- viability, T/C [33]: 14.3%
- viability, T/C [11]: 96%
- viability, T/C [12]: 110%
- viability, T/C [34]: 106%
- viability, T/C [35]: 112%
- viability, T/C [36]: 76.1%
- viability, T/C [37]: 11.1%
- viability, T/C [17]: 114%
- viability, T/C [18]: 104%
- viability, T/C [38]: 113%
- viability, T/C [39]: 111%
- viability, T/C [40]: 56%
- viability, T/C [41]: 10.2%
- viability, T/C [23]: 90.9%
- viability, T/C [24]: 102%
- viability, T/C [42]: 92.4%
- viability, T/C [43]: 86.9%
- viability, T/C [44]: 52.3%
- viability, T/C [45]: 22.5%
- viability, T/C [46]: 75.9%
- viability, T/C [29]: 68.8%
- viability, T/C [47]: 72.9%
- viability, T/C [48]: 61.9%
- viability, T/C [49]: 40.9%
- viability, T/C [50]: 13.3%

SMILES: COc1cc2nccc(Oc3ccc(NC(=O)C4(C(=O)Nc5ccc(F)cc5)CC4)cc3)c2cc1OC + C=CC(=O)N1CCN(c2nc(=O)n(-c3c(C)ccnc3C(C)C)c3nc(-c4c(O)cccc4F)c(F)cc23)C(C)C1
- IC50 (second compound 0.1 µM): 6550 nM
- IC50 (second compound 0.316 µM): 5780 nM
- IC50 (second compound 1 µM): 3980 nM
- IC50 (second compound 3.16 µM): 2500 nM
- IC50 (second compound 10 µM): 1240 nM
- viability, T/C [5]: 114%
- viability, T/C [6]: 122%
- viability, T/C [30]: 113%
- viability, T/C [31]: 124%
- viability, T/C [32]: 78.4%
- viability, T/C [33]: 33.5%
- viability, T/C [11]: 107%
- viability, T/C [12]: 111%
- viability, T/C [34]: 117%
- viability, T/C [35]: 108%
- viability, T/C [36]: 66.8%
- viability, T/C [37]: 34.7%
- viability, T/C [17]: 109%
- viability, T/C [18]: 119%
- viability, T/C [38]: 114%
- viability, T/C [39]: 112%
- viability, T/C [40]: 54.2%
- viability, T/C [41]: 32.9%
- viability, T/C [23]: 83.7%
- viability, T/C [24]: 109%
- viability, T/C [42]: 94.4%
- viability, T/C [43]: 75.4%
- viability, T/C [44]: 44.2%
- viability, T/C [45]: 20.9%
- viability, T/C [46]: 55.2%
- viability, T/C [29]: 64.1%
- viability, T/C [47]: 58.7%
- viability, T/C [48]: 53.9%
- viability, T/C [49]: 32.6%
- viability, T/C [50]: 10.4%

SMILES: Cn1ncnc1[C@H]1c2n[nH]c(=O)c3cc(F)cc(c23)N[C@@H]1c1ccc(F)cc1 + C=CC(=O)N1CCN(c2nc(=O)n(-c3c(C)ccnc3C(C)C)c3nc(-c4c(O)cccc4F)c(F)cc23)C(C)C1
- IC50 (second compound 0.1 µM): > 100 nM
- IC50 (second compound 0.316 µM): > 100 nM
- IC50 (second compound 1 µM): > 100 nM
- IC50 (second compound 3.16 µM): > 100 nM
- IC50 (second compound 10 µM): > 100 nM
- viability, T/C [1]: 104%
- viability, T/C [2]: 106%
- viability, T/C [3]: 89.6%
- viability, T/C [4]: 96.3%
- viability, T/C [5]: 87.2%
- viability, T/C [6]: 79.3%
- viability, T/C [7]: 109%
- viability, T/C [8]: 108%
- viability, T/C [9]: 103%
- viability, T/C [10]: 80.6%
- viability, T/C [11]: 82.6%
- viability, T/C [12]: 86.3%
- viability, T/C [13]: 103%
- viability, T/C [14]: 107%
- viability, T/C [15]: 96.6%
- viability, T/C [16]: 85.9%
- viability, T/C [17]: 83.3%
- viability, T/C [18]: 68.2%
- viability, T/C [19]: 95.5%
- viability, T/C [20]: 89.8%
- viability, T/C [21]: 97.7%
- viability, T/C [22]: 75.2%
- viability, T/C [23]: 66.4%
- viability, T/C [24]: 61.9%
- viability, T/C [25]: 63.9%
- viability, T/C [26]: 67.8%
- viability, T/C [27]: 60.9%
- viability, T/C [28]: 59.6%
- viability, T/C [46]: 59.8%
- viability, T/C [29]: 57.7%
